Tested on: Utrophin A promoter linked to a luciferase reporter gene
Assay: Luciferase reporter assay (murine H2K cells)
Type: cell-based
Details: for activity at 10 µM: Mus musculus, H2K mdx, luciferase level relative to control, H2K/mdx/Utro A reporter cells, compound 10 μM final concentration, read-out: Activity; for Activity: luciferase reporter assay in murine H2K cells, classified relative to control
Method in brief: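 Compound at 10 μM final was applied for 48 hrs to plated H2K mdx myoblasts (33° C, 10% CO2, interferon-containing medium) bearing a luciferase gene under the utrophin A promoter. Luminescence from lysed cells served as read-out.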

Row | Compound | activity at 10 µM [%] | Activity
1 | O=C(Nc1ccc2oc(-c3ccc(Cl)cc3)nc2c1)[C@@H]1CCCN1 [Example 362, (S)-N-(2-(4-chlorophenyl)benzo[d]oxazol-5-yl)pyrrolidine-2-carboxamide] | 201 to 300 | 
2 | COc1ccc(-c2nc3ccccc3o2)cc1 [Example 583] |  | +++ (Between 301% and 400% relative to control)
3 | O=C(CC(F)(F)F)Nc1ccc2oc(-c3ccccc3)cc2c1 [Example 408, 2-phenyl-5-(3′,3′,3′-trifluoropropanamido)benzofuran] | < 200 | 
4 | CCS(=O)(=O)c1ccc2oc(-c3cccc(Cl)c3)nc2c1 [Example 293, 2-(3-chlorophenyl)-5-(ethylsulfonyl)benzo[d]oxazole] | > 401 | 
5 | CC(C)C(=O)Nc1ccc2sc(-c3ccccc3Cl)nc2c1 [Example 295, N-(2-(2-chlorophenyl)benzo[d]thiazol-5-yl)isobutyramide] | > 401 | 
6 | CCCCC(=O)Nc1ccc2oc(-c3ccc(C(F)(F)F)cc3)nc2c1 [Example 126, N-(2-(4-(trifluoromethyl)phenyl)benzo[d]oxazol-5-yl)pentanamide] | < 200 | 
7 | CS(=O)(=O)c1ccc(-c2nc3cc(Cl)ccc3o2)cc1 [Example 395, 5-chloro-2-(4-(methylsulfonyl)phenyl)benzo[d]oxazole] | 201 to 300 | 
8 | CCN(CC)c1ccc(-c2nc3cc(Cl)ccc3o2)cc1 [Example 131, 4-(5-chlorobenzo[d]oxazol-2-yl)-N,N-diethylaniline] | 301 to 400 | 
9 | COc1cccc(-c2nc3ccccc3s2)c1 [Example 606] |  | +++ (Between 301% and 400% relative to control)
10 | c1cc(NCc2ccncc2)cc(-c2nc3ccccc3s2)c1 [Example 647] |  | +++ (Between 301% and 400% relative to control)
11 | CN(C)c1ccc(-c2nc3cc(NC(=O)c4ccncc4)ccc3o2)cc1 [Example 1, N-(2-(4-(dimethylamino)phenyl)benzo[d]oxazol-5-yl)isonicotinamide] | < 200 | 
12 | CC(C)C(=O)Nc1ccc2cc(-c3ccccc3)[nH]c2c1 [Example 375, N-(2-phenyl-1H-indol-6-yl)isobutyramide] | < 200 | 
13 | CCCC(=O)Nc1ccc2[nH]c(-c3ccc(Cl)cc3)nc2c1 [Example 178, N-(2-(4-chlorophenyl)-1H-benzo[d]imidazol-5-yl)butyramide] | < 200 | 
14 | Clc1ccc(SCc2ccc(-c3nc4ccccc4[nH]3)cc2)cc1 [Example 460] |  | + (Up to 200% relative to control)
15 | CCCc1ccc(-c2nc3ccc(C(=O)O)cc3o2)cc1 [Example 109, 2-(4-propylphenyl)benzo[d]oxazole-6-carboxylic acid] | < 200 | 
16 | Cc1ccc(-c2nc3c([N+](=O)[O-])cccc3o2)cc1 [Example 189, 4-nitro-2-p-tolylbenzo[d]oxazole] | < 200 | 
17 | CC(C)C(=O)Nc1ccc2oc(-c3ccc(Cl)cc3F)nc2c1 [Example 343, N-(2-(4-chloro-2-fluorophenyl)benzo[d]oxazol-5-yl)isobutyramide] | > 401 | 
18 | CCS(=O)(=O)c1ccc2oc(-c3cccc4ccccc34)nc2c1 [Example 427, 5-(ethylsulfonyl)-2-(naphthalen-1-yl)benzo[d]oxazole] | < 200 | 
19 | CCCC(=O)Nc1ccc2oc(-c3ccccc3Cl)nc2c1 [Example 229, N-(2-(2-chlorophenyl)benzo[d]oxazol-5-yl)butyramide] | 301 to 400 | 

Row | Compound | activity at 10 µM [%] | Activity
20 | CC(C)C(=O)Nc1cc2oc(-c3ccc(Cl)cc3)nc2cc1Cl [Example 347, N-(5-chloro-2-(4-chlorophenyl)benzo[d]oxazol-6-yl)isobutyramide] | 201 to 300 | 
21 | O=[N+]([O-])c1ccc2oc(-c3ccc4c(c3)OCO4)nc2c1 [Example 286, 2-(benzo[d][1,3]dioxol-5-yl)-5-nitrobenzo[d]oxazole] | 301 to 400 | 
22 | CCCCNc1ccc2oc(-c3ccc(Cl)cc3)nc2c1 [Example 182, N-butyl-2-(4-chlorophenyl)benzo[d]oxazol-5-amine] | 301 to 400 | 
23 | Nc1ccc(-c2nc3cc(N)ccc3o2)c(O)c1 [Example 82, 5-amino-2-(5-aminobenzo[d]oxazol-2-yl)phenol] | 201 to 300 | 
24 | O=C(Cc1ccccc1)Nc1ccc2oc(-c3ccccc3)nc2c1 [Example 33, 2-phenyl-N-(2-phenylbenzo[d]oxazol-5-yl)acetamide] | < 200 | 
25 | Cc1ccc(-c2nc3ccccc3n2C)cc1 [Example 588] |  | +++ (Between 301% and 400% relative to control)
26 | O=C(Nc1nc2ccccc2s1)c1cc(Br)ccc1Cl [Example 671] |  | ++ (Between 201% and 300% relative to control)
27 | CN(C)c1ccc(-c2nc3cc([N+](=O)[O-])ccc3[nH]2)cc1 [Example 509] |  | ++ (Between 201% and 300% relative to control)
28 | O=C(Nc1ccc2oc(-c3ccc(Cl)cc3)nc2c1)c1ccncc1 [Example 87, N-(2-(4-chlorophenyl)benzo[d]oxazol-5-yl)isonicotinamide] | < 200 | 
29 | CCS(=O)(=O)c1ccc2oc(-c3ccc4c(c3)OC(F)(F)O4)nc2c1 [Example 438, 2-(2,2-difluorobenzo[d][1,3]dioxol-5-yl)-5-(ethylsulfonyl)benzo[d]oxazole] | < 200 | 
30 | Cc1cccc(-c2nc3cc(NC(=O)C(C)C)ccc3o2)c1 [Example 202, N-(2-m-tolylbenzo[d]oxazol-5-yl)isobutyramide] | > 401 | 
31 | CCc1ccc2oc(-c3ccc(C)c(N)c3)nc2c1 [Example 625] |  | ++++ (Above 401% relative to control)
32 | COc1ccc(CSc2nc3ccccc3n2C)cc1F [Example 645] |  | +++ (Between 301% and 400% relative to control)
33 | CCN(CC)c1ccc(-c2nc3cc(NC(=O)c4ccc(Cl)c(Cl)c4)ccc3o2)cc1 [Example 68, 3,4-dichloro-N-(2-(4-(diethylamino)phenyl)benzo[d]oxazol-5-yl)benzamide] | < 200 | 
34 | CCSc1nc2ccc(N)cc2s1 [Example 563] |  | ++ (Between 201% and 300% relative to control)
35 | CCN(CC)c1ccc(-c2nc3cc(NC(=O)c4ccc(C(F)(F)F)cc4)ccc3o2)cc1 [Example 69, N-(2-(4-(diethylamino)phenyl)benzo[d]oxazol-5-yl)-4-(trifluoromethyl)benzamide] | < 200 | 
36 | CC(C)C(=O)Nc1ccc2nc(-c3ccc(Cl)c(Cl)c3)oc2c1 [Example 370, N-(2-(3,4-dichlorophenyl)benzo[d]oxazol-6-yl)isobutyramide] | > 401 | 
37 | CC(=O)Nc1cccc(-c2nc3ccccc3[nH]2)c1 [Example 503] |  | + (Up to 200% relative to control)
38 | Clc1ccc(-c2nc3cc(-c4ccc(N5CCOCC5)nc4)ccc3o2)cc1 [Example 316, 2-(4-chlorophenyl)-5-(6-morpholinopyridin-3-yl)benzo[d]oxazole] | < 200 | 

Row | Compound | activity at 10 µM [%] | Activity
39 | CCN(CC)c1ccc(-c2nc3cc(NC(=O)c4ccccc4OC)ccc3o2)cc1 [Example 66, N-(2-(4-(diethylamino)phenyl)benzo[d]oxazol-5-yl)-2-methoxybenzamide] | < 200 | 
40 | Cc1cccc(-c2nc3cc(N)ccc3o2)c1 [Example 196, 2-m-tolylbenzo[d]oxazol-5-amine] | < 200 | 
41 | CCS(=O)(=O)c1ccc2oc(S)nc2c1 [Example 574] |  | + (Up to 200% relative to control)
42 | Cc1cc(C)c2nc(-c3ccc(N)cc3)oc2c1 [Example 590] |  | ++++ (Above 401% relative to control)
43 | O=C(Nc1ccc2oc(-c3ccccc3)nc2c1)c1ccco1 [Example 13, N-(2-phenylbenzo[d]oxazol-5-yl)furan-2-carboxamide] | 201 to 300 | 
44 | CCC(=O)Nc1ccc2oc(-c3ccccc3)nc2c1 [Example 9, N-(2-phenylbenzo[d]oxazol-5-yl)propionamide] | 201 to 300 | 
45 | O=C(Nc1ccc2oc(-c3ccccc3)nc2c1)c1ccncc1 [Example 22, N-(2-phenylbenzo[d]oxazol-5-yl)isonicotinamide] | < 200 | 
46 | CC(C)C(=O)Nc1ccc2oc(-c3ccco3)nc2c1 [Example 419, N-(2-(furan-2-yl)benzo[d]oxazol-5-yl)isobutyramide] | > 401 | 
47 | CCN(CC)c1ccc(-c2nc3cc(NC(=O)c4ccc(OC)cc4)ccc3o2)cc1 [Example 65, N-(2-(4-(diethylamino)phenyl)benzo[d]oxazol-5-yl)-4-methoxybenzamide] | < 200 | 
48 | O=C(Nc1ccc2oc(-c3ccc(Cl)cc3)nc2c1)c1ccc(C(F)(F)F)cc1 [Example 94, N-(2-(4-chlorophenyl)benzo[d]oxazol-5-yl)-4-(trifluoromethyl)benzamide] | < 200 | 
49 | CCCCC(=O)Nc1ccc2oc(-c3cccnc3)nc2c1 [Example 55, N-(2-(pyridin-3-yl)benzo[d]oxazol-5-yl)pentanamide] | < 200 | 
50 | CCC(=O)Nc1ccc2oc(-c3cccc(C)c3)nc2c1 [Example 668] |  | ++ (Between 201% and 300% relative to control)
51 | Nc1ccc2oc(NCc3ccc(Cl)cc3)nc2c1 [Example 381, N2-(4-chlorobenzyl)benzo[d]oxazole-2,5-diamine] | < 200 | 
52 | COC(=O)c1ccc(-c2ccc3oc(-c4ccc(Cl)cc4)nc3c2)cc1 [Example 287, methyl 4-(2-(4-chlorophenyl)benzo[d]oxazol-5-yl)benzoate] | < 200 | 
53 | CC(C)C(=O)Nc1ccc2oc(-c3ccc(Cl)cc3)nc2c1 [Example 101, N-(2-(4-chlorophenyl)benzo[d]oxazol-5-yl)isobutyramide] | > 401 | 
54 | CC(=O)Nc1cccc(-c2nc3ccccc3s2)c1 [Example 513] |  | + (Up to 200% relative to control)
55 | CCS(=O)(=O)c1ccc2oc(-c3ccc4ccccc4n3)nc2c1 [Example 422, 5-(ethylsulfonyl)-2-(quinolin-2-yl)benzo[d]oxazole] | > 401 | 
56 | CCS(=O)(=O)c1ccc2ocnc2c1 [Example 573] |  | + (Up to 200% relative to control)
